“And” between values parts separate entries of the source, which are not always exact repeats. Identical values can stand only once.
Assays:
[1] = xn = mol fraction of the nth substance listed; conditions: 102 kPa, Liquid, x2 = 0; for speed of sound: Frequency=3 MHz, Single path-length method; for mass density: Vibrating tube method; for viscosity: Concentric cylinders viscometry
[2] = 102 kPa, Liquid; for speed of sound: Frequency=3 MHz, Single path-length method; for mass density: Vibrating tube method; for viscosity: Concentric cylinders viscometry

CCCCCCCCCCCC [dodecane] + CCCCCCCCC1CCCCC1
[1]
Conditions | mass density [kg/m3] | speed of sound [m/s] | viscosity [mPa·s]
288.15 K | 752.35 | 1317.2 | –
293.15 K | 748.72 | 1297.7 | 1.49
298.15 K | 745.09 | 1278.2 | –
303.15 K | 741.46 | 1259 | 1.27
313.15 K | 734.19 | 1221.1 | 1.08
323.15 K | 726.88 | 1184 | 0.934
333.15 K | 719.53 | 1147.8 | 0.813

CCCCCCCCCCCC [dodecane] + CCCCCCCCCCC1CCCCC1
[1]
Conditions | mass density [kg/m3] | speed of sound [m/s] | viscosity [mPa·s]
288.15 K | 752.35 | 1317.2 | –
293.15 K | 748.72 | 1297.7 | 1.49
298.15 K | 745.09 | 1278.2 | –
303.15 K | 741.46 | 1259 | 1.27
313.15 K | 734.19 | 1221.1 | 1.08
323.15 K | 726.88 | 1184 | 0.934
333.15 K | 719.53 | 1147.8 | 0.813

CCCCCCCCCCCC [dodecane] + CCCCCCCCCCCCC1CCCCC1
[1]
Conditions | mass density [kg/m3] | speed of sound [m/s] | viscosity [mPa·s]
288.15 K | 752.35 | 1317.2 | –
293.15 K | 748.72 | 1297.7 | 1.49
298.15 K | 745.09 | 1278.2 | –
303.15 K | 741.46 | 1259 | 1.27
313.15 K | 734.19 | 1221.1 | 1.08
323.15 K | 726.88 | 1184 | 0.934
333.15 K | 719.53 | 1147.8 | 0.813

CCCCCCCCCCCCC1CCCCC1 [dodecylcyclohexane]
[2]
Conditions | mass density [kg/m3] | speed of sound [m/s] | viscosity
288.15 K | 825.71 | 1441.5 | –
293.15 K | 822.36 | 1422.9 | 7.77 mPa·s and 7.76 mPa·s
298.15 K | 819.02 | 1404.8 | –
303.15 K | 815.68 | 1386.3 | 5.81 mPa·s
313.15 K | 809.03 | 1350.5 | 4.48 mPa·s
323.15 K | 802.38 | 1315.4 | 3.55 mPa·s
333.15 K | 795.75 | 1281.4 | 2.87 mPa·s and 2.88 mPa·s

CCCCCCCC1CCCCC1 [heptylcyclohexane]
[2]
Conditions | mass density | speed of sound [m/s] | viscosity [mPa·s]
288.15 K | 814.51 kg/m3 | 1393.6 | –
293.15 K | 811 kg/m3 | 1374.2 | 2.8
298.15 K | 807.49 kg/m3 | 1355.1 | –
303.15 K | 803.99 kg/m3 and 803.98 kg/m3 | 1336.1 | 2.25
313.15 K | 796.95 kg/m3 | 1298.8 | 1.85
323.15 K | 789.91 kg/m3 | 1262.2 | 1.55
333.15 K | 782.85 kg/m3 | 1226.7 | 1.31

CCCCCCC1CCCCC1 [hexylcyclohexane]
[2]
Conditions | mass density [kg/m3] | speed of sound [m/s] | viscosity [mPa·s]
288.15 K | 811.34 | 1380.4 | –
293.15 K | 807.76 | 1360.9 | 2.19
298.15 K | 804.19 | 1341.4 | –
303.15 K | 800.61 | 1322.1 | 1.79
313.15 K | 793.43 | 1284.2 | 1.52
323.15 K | 786.25 | 1247.1 | 1.3
333.15 K | 779.05 | 1211 | 1.12

CCCCCCCCC1CCCCC1 [octylcyclohexane]
[2]
Conditions | mass density | speed of sound [m/s] | viscosity [mPa·s]
288.15 K | 817.58 kg/m3 | 1405.5 | –
293.15 K | 814.13 kg/m3 | 1386.4 | 3.52
298.15 K | 810.67 kg/m3 | 1367.4 | –
303.15 K | 807.21 kg/m3 and 807.2 kg/m3 | 1348.6 | 2.79
313.15 K | 800.28 kg/m3 | 1311.6 | 2.26
323.15 K | 793.35 kg/m3 | 1275.5 | 1.87
333.15 K | 786.41 kg/m3 | 1240.3 | 1.57

CCCCCC1CCCCC1 [pentylcyclohexane]
[2]
Conditions | mass density [kg/m3] | speed of sound [m/s] | viscosity [mPa·s]
288.15 K | 807.78 | 1365.8 | –
293.15 K | 804.13 | 1346 | 1.69
298.15 K | 800.48 | 1326.4 | –
303.15 K | 796.82 | 1306.7 | 1.43
313.15 K | 789.49 | 1268.2 | 1.21
323.15 K | 782.14 | 1230.5 | 1.05
333.15 K | 774.75 | 1193.5 | 0.914

Reference: the NIST ThermoML archive (doi:10.1021/acs.jced.8b01135)
